Reference: patent US20260166017A1, “SARM1 INHIBITORS FOR USE IN THERAPY AND COSMETICS” (priority 2022, published 2026)
“Also recorded” adds a separate entry of the source.

Tests used:
Schwann cells = assay: Intracellular NAD+ in Schwann cells (NAD-glo assay); type: cell-based, mouse; details: 250 μM 3AP, 72 hours, compared to DMSO control, listed as 3AP
Procedure: (§1) Freshly plated mouse Schwann cells were obtained from P2 sciatic and brachial nerves. Nerves were digested with trypsin and collagenase, centrifuged and plated on laminin/Poly-L-lysine coated glass coverslips in defined medium as previously described (Arthur-Farraj et al., 2011).
[…] Protein was extracted using Pierce™ IP Lysis Buffer supplemented with cOmplete™ Mini EDTA-free Protease Inhibitor Cocktail, and a BCA assay carried out to determine protein concentration. All samples were diluted to 0.5 μg/μL. The NAD-glo assay was performed according to manufacturer's instruction of the NAD^+/NADH-Glo™ assay by Promega (G9071). In short, 25 μL of sample were incubated with 12.5 μL 0.4M HCl at 60° C. for 15 min, before 12.5 μL 0.5M Tris base were added. 10 μL NAD^+ standards or sample were then mixed with 10 μL NAD-glo master mix (1 ml luciferin detection reagent, 5 μl reductase, 5 μl reductase substrate, 5 μl NAD^+ cycling enzyme, 25 μl NAD^+ cycling substrate) and incubated at RT for 40 min. Luminescence was read using a GloMax® Explorer microplate reader and NAD^+ concentrations determined relative to a NAD^+ standard curve.

neuronal cultures = details: Loreto et al., 2021, Wu et al.; cited from earlier work
SARM1 [1] = biological target: T1, SARM1 (Homo sapiens, UniProt Q6SZW1); details: cited from earlier work; for SARM1 activation in in vitro assays: Zhao et al., 2019; for SARM1 activation on binding in the allosteric site (ARM domain): Figley et al.
T1 sequence (Q6SZW1 28-724): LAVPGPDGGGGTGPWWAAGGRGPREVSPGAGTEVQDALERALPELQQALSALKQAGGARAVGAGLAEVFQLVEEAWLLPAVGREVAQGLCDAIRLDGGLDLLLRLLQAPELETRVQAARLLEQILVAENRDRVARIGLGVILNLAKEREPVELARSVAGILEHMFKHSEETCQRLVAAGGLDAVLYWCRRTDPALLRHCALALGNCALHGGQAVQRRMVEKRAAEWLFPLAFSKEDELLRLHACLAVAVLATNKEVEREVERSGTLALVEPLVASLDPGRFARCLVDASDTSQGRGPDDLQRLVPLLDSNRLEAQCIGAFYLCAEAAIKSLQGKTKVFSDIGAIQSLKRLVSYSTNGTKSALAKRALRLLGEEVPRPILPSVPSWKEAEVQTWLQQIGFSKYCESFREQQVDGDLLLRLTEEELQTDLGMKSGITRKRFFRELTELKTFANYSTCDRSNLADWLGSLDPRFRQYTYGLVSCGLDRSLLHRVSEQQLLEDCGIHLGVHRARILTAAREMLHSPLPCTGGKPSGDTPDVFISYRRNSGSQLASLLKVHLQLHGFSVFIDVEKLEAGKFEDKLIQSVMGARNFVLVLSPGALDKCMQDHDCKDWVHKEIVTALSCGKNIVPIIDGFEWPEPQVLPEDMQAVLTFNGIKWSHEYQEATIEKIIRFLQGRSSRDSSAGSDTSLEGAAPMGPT

[2] = test system: expanded mouse Schwann cells; assay: Cell death in expanded mouse Schwann cells passaged three times (phase contrast, propidium iodide); type: cell-based; details: 250 μM 3-AP for 72 hours vs water; Schwann cells passaged three times in proliferative medium
Procedure: Mouse SCs were passaged on PLL/laminin coated dishes in the presence of low serum (0.5% horse serum), 10 ng/ml Bneuregulin1 (BNRG1), and a low concentration cyclic adenosine monophosphate (CAMP) elevating signal, such as 2 μM forskolin or 100 μM dibutryl cAMP (Arthur-Farraj et al., 2011). Full protocol is described in (Mutschler et al., 2023).

[3] = test system: freshly plated P2 mouse Schwann cells; assay: Cell death in freshly plated P2 mouse Schwann cells (propidium iodide, DAPI, SOX10); type: cell-based; details: 250 μM 3-AP for 72 hours vs water
Procedure: as §1
Sciatic and optic nerves were dissected from Wt and Sarm1 KO mice and directly embedded in O.C.T. compound, without fixing, and stored at −80° C. until ready for cryosectioning. Cryosections at 5 μm thick were collected onto SuperFrost plus slides. These slides were post-fixed in 4% paraformaldehyde (PFA) at room temperature for 10 mins followed by three washes of 5 mins each with 1×PBS. The slides were then immersed in 100% methanol at −20° C. for 10 mins, followed by three washes of 5 mins each with 1×PBS. The slides were then blocked in 5% horse serum (HS)/0.2% Triton x-100/PBS for 30 mins at room temperature. Primary antibodies were diluted in blocking solution and slides were incubated overnight at 4° C. The following day, the slides were washed once for 5 mins with 1×PBS, twice for 5 mins with 0.1% tween/PBS and finally once again for 5 mins with 1×PBS before adding secondary antibodies. The corresponding secondary antibodies were diluted at 1:500 along with DAPI at 1:2000 for 2 hrs at room temperature and kept in the dark. […]

SARM1 [4] = biological target: T1, SARM1; details: Zhao et al., 2019; cited from earlier work

Compound: CC(=O)c1cccnc1 [3-AP, 3-acetylpyridine]
- Intracellular NAD+ levels (Schwann cells): do not change
- effect of high dose on neuronal cultures (neuronal cultures): axonal degeneration and cell death within hours
- SARM1 activity on interaction with active site (TIR domain) for base exchange reaction (SARM1 [1]; Loreto et al., 2021, Angeletti et al., 2022, Wu et al.): increase in SARM1 activity
- cell death by propidium iodide (P.I.) staining and phase contrast [2]: susceptible to cellular dysfunction and death; also recorded: substantial increase in P.I. staining
- cell death judged by propidium iodide (P.I) and DAPI nuclear staining and SOX10 immunocytochemistry [3]: completely insensitive; also recorded: no cell death

Compound: NC(=O)c1ccc[n+]([C@@H]2O[C@H](COP(=O)(O)O)C(O)C2F)c1 (some centres unmarked) [CZ-17, ara-F-NMN]
- SARM1 activation in in vitro assays (SARM1 [1]): can activate SARM1

Compound: NC(=O)c1ccc[n+]([C@@H]2O[C@H](COP(=O)(O)O)C(O)C2O)c1 (some centres unmarked) [NMN, Nicotinamide Mononucleotide]
- SARM1 activation on binding in the allosteric site (ARM domain) (SARM1 [1]; Loreto et al., 2021): potently activates it

Compound: NC(=O)c1ccc[n+]([C@@H]2O[C@H](COP(O)(O)=S)C(O)C2O)c1 (some centres unmarked) [S-NMN]
- SARM1 activation in in vitro assays (SARM1 [1]): can activate SARM1

Compound: O=C(NCc1ccc[n+](C2OC(COP(=O)([O-])O)C(O)C2O)c1)Nc1ccc([N+](=O)[O-])cc1 (centres unmarked) [VMN, Vacor Mononucleotide]
- SARM1 activation on binding in the allosteric site (ARM domain) (SARM1 [1]; Loreto et al., 2021): potently activates SARM1

Compound: sulfo-ara-F-NMN [CZ-48]
- SARM1 activation in cells (SARM1 [4]): can activate SARM1
- SARM1 activation in in vitro assays (SARM1 [1]): can activate SARM1
